{"source": "paper PMC10122656", "about": "“Siglec-6 mediates the uptake of extracellular vesicles through a noncanonical glycolipid binding pocket” (Nature Communications, 2023)", "key": {"[1]": {"molecular_target": "T1, CHO cells expressing Siglec-1 (Homo sapiens, UniProt Q9BZZ2)", "T1 construct": "expressed in transfected cells", "T1 sequence (Q9BZZ2 20-1709)": "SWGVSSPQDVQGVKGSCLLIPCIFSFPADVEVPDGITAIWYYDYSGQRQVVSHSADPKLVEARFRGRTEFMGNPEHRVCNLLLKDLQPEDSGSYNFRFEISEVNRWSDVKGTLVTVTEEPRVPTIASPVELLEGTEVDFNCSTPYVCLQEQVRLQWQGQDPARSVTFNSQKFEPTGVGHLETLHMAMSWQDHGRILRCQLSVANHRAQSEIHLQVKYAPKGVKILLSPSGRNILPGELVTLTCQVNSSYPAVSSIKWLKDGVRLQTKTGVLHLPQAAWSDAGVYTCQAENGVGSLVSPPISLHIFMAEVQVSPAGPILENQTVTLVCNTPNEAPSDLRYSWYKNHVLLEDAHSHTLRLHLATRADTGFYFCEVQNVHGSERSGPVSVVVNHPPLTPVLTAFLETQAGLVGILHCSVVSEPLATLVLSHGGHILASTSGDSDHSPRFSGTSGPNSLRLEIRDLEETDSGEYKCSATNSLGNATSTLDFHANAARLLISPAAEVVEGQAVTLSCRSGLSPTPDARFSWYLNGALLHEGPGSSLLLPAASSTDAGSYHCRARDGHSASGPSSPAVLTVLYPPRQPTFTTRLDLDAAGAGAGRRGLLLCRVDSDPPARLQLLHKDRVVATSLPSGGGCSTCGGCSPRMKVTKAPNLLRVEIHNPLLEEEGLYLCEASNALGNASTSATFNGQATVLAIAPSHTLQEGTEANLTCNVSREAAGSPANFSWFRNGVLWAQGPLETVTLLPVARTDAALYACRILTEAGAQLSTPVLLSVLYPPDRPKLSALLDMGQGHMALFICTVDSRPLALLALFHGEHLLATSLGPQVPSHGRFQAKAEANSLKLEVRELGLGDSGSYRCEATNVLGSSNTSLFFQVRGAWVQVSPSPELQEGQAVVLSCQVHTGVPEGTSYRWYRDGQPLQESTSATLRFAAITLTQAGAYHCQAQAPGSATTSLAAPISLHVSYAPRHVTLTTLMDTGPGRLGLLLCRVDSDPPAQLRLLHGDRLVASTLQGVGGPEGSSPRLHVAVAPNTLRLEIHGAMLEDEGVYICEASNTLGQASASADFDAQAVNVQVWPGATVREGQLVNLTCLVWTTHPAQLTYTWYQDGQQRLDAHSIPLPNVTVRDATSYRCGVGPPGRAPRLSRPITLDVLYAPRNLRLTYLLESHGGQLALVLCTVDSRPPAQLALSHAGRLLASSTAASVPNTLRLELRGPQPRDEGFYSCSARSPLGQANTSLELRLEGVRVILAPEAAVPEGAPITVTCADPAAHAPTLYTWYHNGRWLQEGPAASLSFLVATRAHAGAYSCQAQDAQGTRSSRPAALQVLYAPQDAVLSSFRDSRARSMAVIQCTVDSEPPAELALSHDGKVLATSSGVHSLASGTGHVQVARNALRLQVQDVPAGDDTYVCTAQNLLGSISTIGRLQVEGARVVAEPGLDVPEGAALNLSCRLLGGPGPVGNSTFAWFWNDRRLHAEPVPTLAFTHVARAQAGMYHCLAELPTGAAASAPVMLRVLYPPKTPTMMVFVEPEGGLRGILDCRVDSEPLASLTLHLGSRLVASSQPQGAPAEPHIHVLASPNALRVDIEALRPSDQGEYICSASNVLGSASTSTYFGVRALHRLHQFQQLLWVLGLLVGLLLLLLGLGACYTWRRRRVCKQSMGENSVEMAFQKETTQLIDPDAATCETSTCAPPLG", "experiment": "Liquid glycan array (LiGA) binding read out by next-generation sequencing", "type": "cell-based", "conditions": "for LiGA signal at 0.034: Figure S9, 0.034; for LiGA signal at 0.041: Figure S9, 0.041; for LiGA signal at 0.048: Figure S9, first column 0.048; for LiGA: ganglioside oligosaccharide on phage binding to Siglec-1 CHO cells (Fig. 1e): replicates; for density at which LiGA binding to Siglec-1 CHO cells was maximal: oligosaccharide on phage; for LiGA signal at 0.019: Figure S9, 0.019; for LiGA signal at 0.06: Figure S9, 0.06", "description": "(§1) Solution of five SDB phage clones (10^12−10^13 PFU/mL in PBS) was combined in equal amounts (50 µL) to create a multiplexed silent barcode (MSDB). Twenty-four such MSDB were created and combined DBCO-NHS (50 mM in DMF) to afford a final concentration ranging from 0.25 to 2 mM. The reaction was incubated for 45 min at room temperature. The conjugates were purified by Zeba™ Spin Desalting column (7 kDa MWCO, 0.5 mL, Thermo Fisher) and pVIII modification rate was confirmed by MAL/DI using a previously reported protocol. Typically, 1 mM DBCO-NHS yields 25% of pVIII modification after 45 min incubation. Six MSDB were combined and a solution of azido-glycans (10 mM stock in Nuclease Free H2O) was added to the solution to afford a 2 mM concentration of glycan-azide and the solutions were further incubated overnight at 4 °C. The glycan conjugation was confirmed using MALDI-TOF. The conjugates were purified by Zeba column and supplemented with glycerol and stored as 50% glycerol stock at −20 °C. LiGA mixture was prepared by combining these solutions.\nas §1, with “The solution of five” for “Solution of five”, “Fisher) and the pVIII modification” for “Fisher) and pVIII modification”\nConfluent CHO cells expressing Siglec-1 or UT CHO cells were detached using PBS plus 5 mM EDTA and washed with PBS (2 × 5 mL). Suspension of at 2 × 10^6 cells in HEPES-1, % BSA (20 mM HEPES, 150 mM NaCl, 2 mM CaCl2, pH 7.4, 1% BSA) in a round bottom 3 mL tube (Corning, #352054) was combined with LiGA (10^8 PFU) and incubated for 1 h at 4 °C. The cells were then washed with HEPES-0.1% BSA in (2 × 3 mL) and HEPES buffer (1 × 1 mL). The washed cell pellet was resuspended in 30 µL nuclease-free H2O. The solution was incubated at 90 °C for 15 min, centrifuged at 21,000 × g for 10 min, and 25 µL of the supernatant was used for PCR and sequencing."}, "Siglec-1-Fc R116A": {"test_system": "Siglec-1-Fc R116A", "sequence (Q9BZZ2 20-136 R116A limits assumed)": "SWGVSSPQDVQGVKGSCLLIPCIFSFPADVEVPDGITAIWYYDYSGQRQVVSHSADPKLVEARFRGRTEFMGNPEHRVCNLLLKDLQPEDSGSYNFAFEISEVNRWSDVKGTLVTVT", "experiment": "Liposome over lectin assay (LOLA)", "type": "binding, human", "conditions": "Siglec-1 R (arginine mutant); replicates", "description": "Siglec-Fc constructs designed by Rodrigues et al.[30] were used in this work. Siglec-Fc constructs were expressed using WT CHO cells in cell culture media as described above with 1% HEPES. Cells incubated as described above for one-week post confluency. The supernatant was harvested and stored at 4 °C.\nThe purification was heavily inspired by Rodrigues et al.[30]. The purification of the Siglec-Fcs from supernatant began with Ni^2+ affinity chromatography using an AKTA FPLC equipped with a HisTrap Excel column (GE). The column was equilibrated with fifteen column volumes (CVs) of equilibrium buffer (500 mM NaCl, 20 mM NaPO4H2, pH 7.4). The Siglec-Fc containing supernatant was then loaded in its entirety onto the column. The column was then washed with fifteen CVs of wash buffer (500 mM NaCl, 30 mM imidazole, 20 mM NaPO4H2, pH 7.4). The Siglec-Fc was then eluted in 20 in 1 mL fractions with twenty CVs of elution buffer (500 mM NaCl, 500 mM imidazole, 20 mM NaPO4H2, pH 7.4). Fractions containing Siglec-Fc were compiled and then prepared for the next stage of purification by diluting the fractions 1:4 with buffer W (100 mM Tris–HCl, 150 mM NaCl, 1 mM EDTA, pH 8.0). A Strep-Tactin column (IBA life sciences) was washed with fifteen CVs of buffer W. The Siglec-Fc-buffer W solution was then loaded in its entirety onto the column. The bound Siglec-Fc was then washed with fifteen CVs of buffer W. Siglec-Fc was eluted from the column with 15 column volumes of buffer E (100 mM Tris–HCl, 150 mM NaCl, 1 mM EDTA, 10 mM d-Desthiobiotin, pH 8.0). Fractions containing Siglec-Fc were pooled and dialyzed against PBS to remove any d-Desthiobiotin. After dialysis, Siglec-Fcs were concentrated using an ultra-centrifugal device (30 kDa MWCO) and aliquoted into 5 µg aliquots, and frozen. The Siglec-Fcs were then lyophilized overnight, and the lyophilized Siglec-Fcs were stored at −20 °C.\nSiglec-Fc in PBS was adsorbed to a 96-well flat-bottom fluorescent microplate by adding 1 µg/well and incubating the plate at 4 °C overnight. The plate was then washed with PBS followed by blocking with 5% (m/V) BSA in PBS for 1 h at room temperature. The plate was again washed with PBS and 100 µM liposome in PBS was added to each well. The plate was then incubated at 37 °C for 30 min followed by washing with PBS. PBS was then added to the plate and the fluorescence intensity (λex 640 nm, λem 680 nm) of each well was measured using a Molecular Devices SpectraMAX ® iD5."}, "[2]": {"conditions": "oligosaccharide density 0.008 Ligand/nm2"}, "[3]": {"conditions": "oligosaccharide density 0.019 Ligand/nm2"}, "[4]": {"conditions": "oligosaccharide density 0.034 Ligand/nm2"}, "[5]": {"conditions": "oligosaccharide density 0.041 Ligand/nm2"}, "[6]": {"conditions": "oligosaccharide density 0.048 Ligand/nm2"}, "[7]": {"conditions": "oligosaccharide density 0.06 Ligand/nm2"}}, "note": "“And” between values parts separate entries of the source, which are not always exact repeats. Equal values may be shown once."}
{"substance": "GD1a", "values": [{"measurement": "LiGA signal at 0.034", "setting": "[1]", "value": "3.442 and 2.502 and 3.222 and 3.062 and 2.777"}, {"measurement": "LiGA signal at 0.041", "setting": "[1]", "value": "1.814 and 2.04 and 1.9 and 2.274 and 1.639"}, {"measurement": "LiGA signal at 0.048", "setting": "[1]", "value": "1.684 and 1.501 and 1.621 and 1.606"}, {"measurement": "LiGA signal at 0.066", "setting": "[1]; Figure S9, first column 0.066", "value": "2.309 and 1.395 and 2.352 and 2.266"}, {"measurement": "LiGA: ganglioside oligosaccharide on phage binding to Siglec-1 CHO cells (Fig. 1e)", "setting": "[1]; [2]", "value": "0.05 (4×) and 0.04"}, {"measurement": "LiGA: ganglioside oligosaccharide on phage binding to Siglec-1 CHO cells (Fig. 1e)", "setting": "[1]; [3]", "value": "0.2 and 0.13 and 0.03 and 0.15"}, {"measurement": "LiGA: ganglioside oligosaccharide on phage binding to Siglec-1 CHO cells (Fig. 1e)", "setting": "[1]; [4]", "value": "0.41 and 0.39 and 0.36 and 0.44 and 0.32"}, {"measurement": "LiGA: ganglioside oligosaccharide on phage binding to Siglec-1 CHO cells (Fig. 1e)", "setting": "[1]; [5]", "value": "0.24 and 0.29 and 0.21 and 0.23 and 0.26"}, {"measurement": "LiGA: ganglioside oligosaccharide on phage binding to Siglec-1 CHO cells (Fig. 1e)", "setting": "[1]; [6]", "value": "0.19 and 0.21 (2×) and 0.22 and 0"}, {"measurement": "LiGA: ganglioside oligosaccharide on phage binding to Siglec-1 CHO cells (Fig. 1e)", "setting": "[1]; oligosaccharide density 0.066 Ligand/nm2", "value": "0.18 and 0.3 (2×) and 0.29"}, {"measurement": "density at which LiGA binding to Siglec-1 CHO cells was maximal", "setting": "[1]", "value": "~ 26 nm^2/ligand"}, {"measurement": "LOLA: GLL binding, fluorescence plate reader (Fig. 2e)", "setting": "Siglec-1-Fc R116A", "value": "8.88 and 7.01 and 5.82 and 9.99 and 5.45"}]}
{"substance": "GM3", "values": [{"measurement": "LiGA signal at 0.034", "setting": "[1]", "value": "0.358 and 0.619 and 0.601 and 0.534"}, {"measurement": "LiGA signal at 0.041", "setting": "[1]", "value": "0.827 and 1.082 and 1.01 and 1.1 and 0.616"}, {"measurement": "LiGA signal at 0.048", "setting": "[1]", "value": "0.881 and 0.783 and 0.773 and 1.152"}, {"measurement": "LiGA: ganglioside oligosaccharide on phage binding to Siglec-1 CHO cells (Fig. 1e)", "setting": "[1]; [2]", "value": "0.19 and 0.09 and 0.07 and 0.1 and 0.08"}, {"measurement": "LiGA: ganglioside oligosaccharide on phage binding to Siglec-1 CHO cells (Fig. 1e)", "setting": "[1]; [3]", "value": "0.12 and 0.11 and 0.1 and 0.19 and 0.05"}, {"measurement": "LiGA: ganglioside oligosaccharide on phage binding to Siglec-1 CHO cells (Fig. 1e)", "setting": "[1]; [4]", "value": "0.05 and 0.08 (2×) and 0.07"}, {"measurement": "LiGA: ganglioside oligosaccharide on phage binding to Siglec-1 CHO cells (Fig. 1e)", "setting": "[1]; [5]", "value": "0.11 and 0.14 (2×) and 0.13 and 0.08"}, {"measurement": "LiGA: ganglioside oligosaccharide on phage binding to Siglec-1 CHO cells (Fig. 1e)", "setting": "[1]; [6]", "value": "0.11 and 0.1 (2×) and 0.15"}, {"measurement": "LiGA: ganglioside oligosaccharide on phage binding to Siglec-1 CHO cells (Fig. 1e)", "setting": "[1]; [7]", "value": "0.13 and 0.15 and 0.07 and 0.06"}]}
{"substance": "GQ1b", "values": [{"measurement": "LOLA: GLL binding, fluorescence plate reader (Fig. 2e)", "setting": "Siglec-1-Fc R116A", "value": "6.93 and 2.97 and 4.43 and 6.13 and 5.67"}]}
{"substance": "GM1", "values": [{"measurement": "LiGA signal at 0.019", "setting": "[1]", "value": "0.643 and 0.783 and 0.76 and 0.6"}, {"measurement": "LiGA signal at 0.034", "setting": "[1]", "value": "0.857 and 0.909 and 0.746 and 0.756 and 0.912"}, {"measurement": "LiGA signal at 0.06", "setting": "[1]", "value": "1.503 and 0.848 and 1.103 and 0.902 and 1.094"}, {"measurement": "LiGA signal at 0.048", "setting": "[1]", "value": "0.51 and 0.478 and 0.553 and 0.673"}, {"measurement": "LiGA: ganglioside oligosaccharide on phage binding to Siglec-1 CHO cells (Fig. 1e)", "setting": "[1]; [2]", "value": "0.12 and 0.09 (2×) and 0.04"}, {"measurement": "LiGA: ganglioside oligosaccharide on phage binding to Siglec-1 CHO cells (Fig. 1e)", "setting": "[1]; [3]", "value": "0.08 (2×) and 0.1 (2×)"}, {"measurement": "LiGA: ganglioside oligosaccharide on phage binding to Siglec-1 CHO cells (Fig. 1e)", "setting": "[1]; [4]", "value": "0.11 and 0.12 (2×) and 0.1 (2×)"}, {"measurement": "LiGA: ganglioside oligosaccharide on phage binding to Siglec-1 CHO cells (Fig. 1e)", "setting": "[1]; [5]", "value": "0.07 (3×) and 0.08"}, {"measurement": "LiGA: ganglioside oligosaccharide on phage binding to Siglec-1 CHO cells (Fig. 1e)", "setting": "[1]; [6]", "value": "0.07 (2×) and 0.06 and 0.09"}, {"measurement": "LiGA: ganglioside oligosaccharide on phage binding to Siglec-1 CHO cells (Fig. 1e)", "setting": "[1]; [7]", "value": "0.19 and 0.11 and 0.14 (2×) and 0.12"}, {"measurement": "LOLA: GLL binding, fluorescence plate reader (Fig. 2e)", "setting": "Siglec-1-Fc R116A", "value": "6.6 and 6.11 and 3.97 and 6.44 and 3.68"}]}
{"substance": "GM2", "values": [{"measurement": "LiGA signal at 0.019", "setting": "[1]", "value": "0.917 and 0.919 and 0.922 and 1.035 and 1.785"}, {"measurement": "LiGA signal at 0.06", "setting": "[1]", "value": "5.095 and 7.961 and 4.56 and 5.475"}, {"measurement": "LiGA signal at 0.048", "setting": "[1]", "value": "6.111 and 6.403 and 6.572 and 7.724 and 12.213"}, {"measurement": "LiGA: ganglioside oligosaccharide on phage binding to Siglec-1 CHO cells (Fig. 1e)", "setting": "[1]; [2]", "value": "0.1 (2×) and 0.05 and 0.07"}, {"measurement": "LiGA: ganglioside oligosaccharide on phage binding to Siglec-1 CHO cells (Fig. 1e)", "setting": "[1]; [3]", "value": "0.12 (3×) and 0.13 and 0.23"}, {"measurement": "LiGA: ganglioside oligosaccharide on phage binding to Siglec-1 CHO cells (Fig. 1e)", "setting": "[1]; [4]", "value": "0.71 and 1.24 and 1.08 and 1.35 and 0.62"}, {"measurement": "LiGA: ganglioside oligosaccharide on phage binding to Siglec-1 CHO cells (Fig. 1e)", "setting": "[1]; [6]", "value": "0.82 and 0.84 and 0.99 and 0.78"}, {"measurement": "LiGA: ganglioside oligosaccharide on phage binding to Siglec-1 CHO cells (Fig. 1e)", "setting": "[1]; [7]", "value": "1.02 and 0.58 and 0.7 and 0.65"}, {"measurement": "density at which LiGA binding to Siglec-1 CHO cells was maximal", "setting": "[1]", "value": "~ 26 nm^2/ligand"}]}
{"substance": "GD3", "values": [{"measurement": "LOLA: GLL binding, fluorescence plate reader (Fig. 2e)", "setting": "Siglec-1-Fc R116A", "value": "6.08 and 3.44 and 4.47 and 3.34 and 3.26"}]}
